From patent US20110212899A1, “Corneal Neuritogenesis Promoter Containing Pacap and Its Derivative” (priority 2004, published 2011) come the findings set out here.

Where no end group is shown, it is not given here.

Experiment [1] deals with rabbit eye (tear secretion). The experiment in a line: Promoting effect on tear secretion in a rabbit (Schirmer method, Test Example 6). It is filed as in vivo. The conditions noted are these: 0.1% eye drops, 50 μL; from 20 minutes to 120 minutes after administration. On the procedure: Changes in the tear amount when PACAP27 and peptide 24 were administered to the eyes of a rabbit were examined. Japanese white rabbits with a body weight of 1.5 to 2.0 kg purchased from Kitayama Labes Co., Ltd were used. The animals were each put in separate cages placed in a room wherein a temperature of 23±3° C. and a humidity of 55±10% were kept and a light was on for 12 hours per day (lighting at 8:00 and lights-out at 20:00), and raised after arrival until the final day of the test. The animals were given 100 g of solid feed (Labo R Stock, Nosan Corporation) per day, and could freely have tap water. PACAP27 and peptide 24 were used as test substances. […] The amount of tear secreted was measured at 8.5 minutes before administration, and at 10 minutes, 20 minutes, 30 minutes, 60 minutes and 120 minutes after the administration by a Schirmer method. […] After the tear in the lower eyelid conjunctival sac was wiped with filter paper, the amount of tear secreted in 1 minute was measured using a Schirmer's test strip (Showa Yakuhin Kako Co.). The difference between the tear secretion amount at each time point after administration of the eye drops and the tear secretion amount before administration of the eye drops was calculated as a change in the tear amount caused by the test substance. […]

Experiment [2] deals with Human normal corneal epithelial cells. The experiment in a line: Promoting effect on proliferation of cultured corneal epithelial cells (Test Example 8). It is filed as cell-based. The note with it: final concentration (10^−5 M), cultivation for 8 days; p<0.05. On the procedure:
Human normal corneal epithelial cells (Kurabo Industries Ltd., strain No. 4C0466) were used. Peptide 24 and PACAP27 were used as test substances. The test substance was dissolved in distilled water at a concentration 1000 times of the final concentration (10^−5 M), and the concentration was then adjusted to twice the final concentration with a serum-free proliferation medium for human corneal epithelial cells (EpiLife (−), Kurabo Industries Ltd.). After thawing freeze-preserved human normal corneal epithelial cells, the cells were seeded according to a conventional method and cultured for 7 days at 37° C. in 5% CO2. After the cultivation, the cells were harvested by a conventional method, and were suspended in EpiLife (−) at a concentration of 1.0×10^4 cells/mL. […] The number of the cells was counted based on the ability to reduce MTT (3-(4,5-dimethyl-2-thiazolyl)-2,5-diphenyl-2H-tetrazolium bromide) according to the protocol of Cell Counting Kit-8 (Dojindo Laboratories). […] The plate was incubated at 37° C. in 5% CO2 for 2 hours and then, the absorbance was measured at 450 nm using a microplate reader. Average values of absorbance in the control group and each test substance-addition group were calculated, and the values were compared between the control group and each test substance-addition group by a Dunnett's multiple comparison test (one-tailed). […]

In experiment [3] the test system is rabbit cornea (corneal flap model). The experiment in a line: Improving effect on reduced sensitivity of the rabbit cornea caused by using a microkeratome (2) (Test Example 7). It is filed as in vivo. The note with it: 0.01% eye drops, 50 μL 4 times a day for 8 weeks; 7 and 8 weeks after creation of the corneal flap. On the procedure: Male Japanese white rabbits with a body weight of 1.5 to 2.0 kg purchased from Kitayama Labes Co., Ltd were used. The animals were each put in separate cages placed in a room wherein a temperature of 23±3° C. and a humidity of 55±10% were kept and a light was on for 12 hours per day (lighting at 8:00 and lights-out at 20:00), and raised after arrival until the final day of the test. The animals were given 100 g of solid feed (Labo R Stock, Nosan Corporation) per day, and could freely have tap water.
Peptide 24 was used as a test substance. The test substance was dissolved in the following vehicle solution at a concentration of 0.01% to prepare eye drops. […]
Corneal sensitivity was measured before the surgery and once a week from the first week to the eighth week after the surgery using the Cochet-Bonnet aesthesiometer.
Corneal sensitivity was determined by the frequency of eyeblink responses induced when a nylon filament attached to the Cochet-Bonnet aesthesiometer was contacted the center of the cornea of the animal. […] When the animal was judged to have corneal sensitivity twice or more, the maximum value (the longest length of the nylon filament of the aesthesiometer) was recorded as corneal sensitivity of the individual at that measurement time point. The measurement was blind trial so that an examiner could not know which group the rabbit being measured belonged to. […]

With “His-Ser-Asp-Ala-Ile-Phe-Thr-Asp-Ser-Tyr-Ser-Arg-Tyr-Arg-Arg-Gln-Leu-Ala-Val-Arg-Arg-Tyr-Leu-Ala-Ala-Val-Leu-Gly-Arg-Arg-NH2 (HSDAIFTDSYSRYRRQLAVRRYLAAVLGRR-NH2) [Peptide 24]”, in experiment [1], the “tear secretion amount compared with vehicle solution-administration group” value is “significant increase”. Besides, the “cell number (MTT reduction ability) compared with control group” value in experiment [2] is “increased”. Besides, the “corneal sensitivity (Cochet-Bonnet aesthesiometer) compared with control group” value in experiment [3] is on record as “statistically significant improving effect”.
